# Laboratory results: patent US20250163056A1, “NONMUSCLE MYOSIN II INHIBITORS” (The University of Florida Research Foundation, Inc., priority 2018, published 2025)
# pKi: −log10 of the molar value. Several values for one entry are separate records, joined by “and”; a condition that tells them apart may be missing. Identical values can stand only once. Like-named read-outs stand apart in the source and are kept apart here.
# What was measured:
# [1] = Solubility (quoted in the Table 2 note); assay type: physicochemical
# Bovine cardiac myosin = Bovine cardiac myosin (Bos taurus (Bovine), UniProt Q9BE39); assay: Cardiac muscle myosin II actin-activated ATPase assay (NADH-coupled); assay type: biochemical
# Bovine cardiac myosin, sequence (Q9BE39 whole entry): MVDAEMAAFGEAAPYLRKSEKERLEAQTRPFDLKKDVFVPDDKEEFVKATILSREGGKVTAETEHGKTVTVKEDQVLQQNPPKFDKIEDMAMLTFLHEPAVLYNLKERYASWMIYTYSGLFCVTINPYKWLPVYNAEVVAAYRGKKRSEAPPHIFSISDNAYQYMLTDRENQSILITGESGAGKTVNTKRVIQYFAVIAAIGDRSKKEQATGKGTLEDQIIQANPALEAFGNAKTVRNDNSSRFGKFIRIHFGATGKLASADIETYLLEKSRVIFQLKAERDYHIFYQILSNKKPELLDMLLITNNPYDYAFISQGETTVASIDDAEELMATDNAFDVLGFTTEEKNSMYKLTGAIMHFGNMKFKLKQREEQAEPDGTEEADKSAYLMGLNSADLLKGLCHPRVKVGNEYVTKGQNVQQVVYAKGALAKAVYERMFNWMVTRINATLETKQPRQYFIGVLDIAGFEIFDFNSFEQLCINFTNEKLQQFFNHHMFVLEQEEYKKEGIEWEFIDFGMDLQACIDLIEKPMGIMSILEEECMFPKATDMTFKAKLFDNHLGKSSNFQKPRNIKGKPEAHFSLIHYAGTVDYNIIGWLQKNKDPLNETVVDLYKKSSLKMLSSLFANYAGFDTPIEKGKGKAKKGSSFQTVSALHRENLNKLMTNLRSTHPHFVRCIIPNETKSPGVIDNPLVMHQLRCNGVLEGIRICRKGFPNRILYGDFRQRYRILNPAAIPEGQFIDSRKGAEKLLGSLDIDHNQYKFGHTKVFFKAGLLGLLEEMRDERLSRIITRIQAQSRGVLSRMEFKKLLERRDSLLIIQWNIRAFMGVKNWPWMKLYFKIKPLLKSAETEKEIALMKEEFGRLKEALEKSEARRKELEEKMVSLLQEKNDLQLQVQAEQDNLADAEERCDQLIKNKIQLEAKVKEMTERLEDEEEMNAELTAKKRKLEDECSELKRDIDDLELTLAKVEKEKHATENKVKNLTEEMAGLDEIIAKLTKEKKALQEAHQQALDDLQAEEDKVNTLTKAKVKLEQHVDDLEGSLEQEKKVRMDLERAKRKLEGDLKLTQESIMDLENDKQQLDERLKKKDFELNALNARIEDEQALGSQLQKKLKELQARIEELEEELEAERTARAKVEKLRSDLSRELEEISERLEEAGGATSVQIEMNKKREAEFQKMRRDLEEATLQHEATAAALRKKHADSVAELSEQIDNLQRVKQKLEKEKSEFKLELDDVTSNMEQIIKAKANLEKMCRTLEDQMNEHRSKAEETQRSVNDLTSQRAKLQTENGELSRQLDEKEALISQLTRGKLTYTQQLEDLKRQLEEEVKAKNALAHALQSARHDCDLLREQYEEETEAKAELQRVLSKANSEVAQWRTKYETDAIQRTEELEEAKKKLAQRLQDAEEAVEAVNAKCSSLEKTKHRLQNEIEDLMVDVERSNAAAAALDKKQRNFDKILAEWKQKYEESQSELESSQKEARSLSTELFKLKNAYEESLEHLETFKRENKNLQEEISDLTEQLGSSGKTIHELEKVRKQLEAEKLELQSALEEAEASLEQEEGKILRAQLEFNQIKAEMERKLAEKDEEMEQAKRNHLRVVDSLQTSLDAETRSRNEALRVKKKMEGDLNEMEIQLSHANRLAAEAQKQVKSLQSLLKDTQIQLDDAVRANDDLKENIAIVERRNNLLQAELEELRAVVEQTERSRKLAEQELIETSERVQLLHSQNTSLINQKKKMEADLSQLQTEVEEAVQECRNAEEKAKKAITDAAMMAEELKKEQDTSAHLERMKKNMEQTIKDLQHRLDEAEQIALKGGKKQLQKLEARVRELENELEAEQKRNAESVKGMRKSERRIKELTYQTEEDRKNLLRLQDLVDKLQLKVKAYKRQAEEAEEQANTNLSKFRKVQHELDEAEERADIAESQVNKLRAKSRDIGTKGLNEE
# Bovine cardiac myosin, sequence (P85100 whole entry partner): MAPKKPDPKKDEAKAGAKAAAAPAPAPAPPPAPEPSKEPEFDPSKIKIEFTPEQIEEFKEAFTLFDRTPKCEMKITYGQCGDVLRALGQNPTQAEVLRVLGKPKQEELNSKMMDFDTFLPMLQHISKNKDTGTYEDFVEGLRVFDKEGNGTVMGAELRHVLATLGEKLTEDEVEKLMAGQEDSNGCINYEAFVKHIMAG
# Bovine cardiac myosin, sequence (Q3SZE5 whole entry partner): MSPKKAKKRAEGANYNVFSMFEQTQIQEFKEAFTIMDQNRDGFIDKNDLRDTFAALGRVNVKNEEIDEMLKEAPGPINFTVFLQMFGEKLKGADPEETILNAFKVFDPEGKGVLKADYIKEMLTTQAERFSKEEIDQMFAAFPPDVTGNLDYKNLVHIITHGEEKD
# Method in brief: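 NADH-coupled (PK/LDH) assay at 25° C: 300 nM bovine cardiac myosin, 10 μM rabbit F-actin, 1 mM ATP, 1 mM PEP, 220 μM NADH, MOPS pH 7.0, 0.5% DMSO. NADH fluorescence was followed for 30 min; Ki values came from 16-point triplicate data (top 50 uM) fitted to a quadratic one-to-one binding model.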
# Male Sprague-Dawley rats = assay: Cardiac safety assay 2: in vivo echocardiography with IV drug infusion; set-up: species or system rat
# From the text: The first (results shown in Table 2) assesses the effects of our compounds on the contractility of cardiomyocytes. As the cardiac Ki increases, the contractility effects dramatically decrease. However, unlike in the adult heart, the hiPS cardiomyocytes used in this assay express NMII, which likely accounts for the residual contractility effects seen at the highest dose tested. For that reason, we moved to in vivo echocardiograms, which assess contractility in live animals (FIG. 7). […] Accordingly, the compounds of the invention and compounds used for practice of methods of the invention can produce less cardiac toxicity than does blebbistatin.
# Male Sprague-Dawley rats are acclimated for approximately 1 week prior to use. Rats are lightly anesthetized using isoflurane and an intravenous catheter is placed for dosing purposes. Baseline 2-D echocardiograms are collected (standard SAX B-mode and M-mode at the level of the papillary muscle). Each rat receives a total of 3 IV treatments. Vehicle (10% DMSO, 10% Tween 80 and 80% water) is first administered, followed 10 minutes later by two subsequent infusions, separated by 10 minutes. Infusions of the positive control, Blebbistatin, are delivered at 0.5 mg/kg IV. […] Measurements including fractional shortening, ejection fraction, heart rate and cardiac output are calculated.
# [2] = system: hiPS cardiomyocytes (Cor.4U CMs); assay: Cardiac safety assay 1: beating parameters of cardiomyocytes (xCELLigence RTCA Cardio); assay type: cell-based, human; conditions: hiPS-derived cardiomyocytes
# Description: The spontaneous contractions of cardiomyocytes (CMs) is measured label-free in real time using the ACEA xCELLigence RTCA Cardio instrument. All measurements are performed at 37° C. in a cell culture incubator, allowing for spontaneous beating of CMs at physiological conditions. Cor.4U CMs are seeded at 3×10^4 cells/well in 180 μl/well maintenance medium. Prior to seeding, a background impedance measurement (plate plus medium) is performed. The contraction of CMs involves cyclic modulation of cell morphology and adhesion inducing a delta change in impedance. From the cyclic changes in impedance a beating frequency, amplitude and effects on beating pattern can be calculated. Time point “0” (baseline) is recorded 10× for 20 seconds at 1 minute intervals. Thereafter, compounds and control (0.1% DMSO) are added to the wells and effects are measured 30 minutes later. Vehicle control is 0.1% DMSO and positive control is 100 nM isoproterenol. Compounds are tested at 0.1, 0.3, 1.0 and 3.0 uM. Data is collected at 5, 10, 15, 20 and 30 minutes, and 1, 4, 6, 12 and 24 hours post-incubation.
smiles,measurement,setting,value
"Cc1ccc2c(c1)C(=O)[C@]1(O)CCN(c3ccccc3)C1=N2 [Blebbistatin, reference compound]",solubility,[1],9.3 µM
same,pKi,"Bovine cardiac myosin; 300 nM cardiac myosin, 10 μM actin, 25° C., read-out: CMMII KI",5.82
same,CMMII/NMII Ratio,Bovine cardiac myosin; cardiac Ki relative to NMII EC50,0.56
same,pKi,"Bovine cardiac myosin; cardiac muscle myosin II, read-out: CMMII Ki",6.17
same,Ratio CMMII:NMII Ki/EC50,Bovine cardiac myosin; cardiac myosin II Ki over nonmuscle myosin II EC50,0.789 and 0.8
same,contractility effects in in vivo echocardiograms,Male Sprague-Dawley rats,substantial contractility effects
same,Qualitative impact on contractility (e.g. Full = Complete inhibition of contraction),[2]; 0.1 uM,No
same,Qualitative impact on contractility (e.g. Full = Complete inhibition of contraction),[2]; 0.3 uM,Partial
same,Qualitative impact on contractility (e.g. Full = Complete inhibition of contraction),[2]; 1.0 uM,1.0u M: Full 3.0 uM: Full
same,Change in amplitude at 1 uM @ 15 min,"[2]; 1 uM, 15 min",−57.9 ± 12.8%
same,Qualitative impact on contractility (e.g. Full = Complete inhibition of contraction),[2]; 3.0 uM,1.0u M: Full 3.0 uM: Full
